Like-named read-outs stand apart in the source and are kept apart here.
Experiments:
[1] = molecular target: T1, rat GPR14 (U-II receptor) (Rattus norvegicus, UniProt P49684); test: Rat UII Calcium Mobilization FLIPR Assay; format: cell-based; conditions: average value for the compound tested; read-out: Rat UII FLIPR Average IC50
T1 construct: expressed in transfected cells
T1 sequence (P49684 1-386): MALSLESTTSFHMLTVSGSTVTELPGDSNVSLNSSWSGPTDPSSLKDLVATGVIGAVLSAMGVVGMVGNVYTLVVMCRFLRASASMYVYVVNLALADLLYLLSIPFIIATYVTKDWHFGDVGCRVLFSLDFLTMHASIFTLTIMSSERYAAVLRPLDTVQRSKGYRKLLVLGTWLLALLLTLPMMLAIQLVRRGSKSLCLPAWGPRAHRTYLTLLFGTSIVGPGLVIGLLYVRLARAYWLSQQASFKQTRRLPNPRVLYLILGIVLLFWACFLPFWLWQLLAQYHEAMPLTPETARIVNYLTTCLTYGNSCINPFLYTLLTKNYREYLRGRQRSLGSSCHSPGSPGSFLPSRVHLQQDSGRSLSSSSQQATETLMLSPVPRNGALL
Summary of the method: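 CHO cells stably expressing rat U-II receptor, seeded 24 h before assay, were loaded with FLIPR calcium dye in HBSS/20 mM HEPES/0.1% BSA/2.5 mM probenecid, pH 7.4, for 1 h at 37° C. Calcium mobilization then read by FLIPR at 23° C.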

[2] = molecular target: T2, Human UII receptor, 6D9 human rhabdomyosarcoma cells (Homo sapiens, UniProt Q9UKP6); test: Human UII Calcium Mobilization Assay; format: cell-based; conditions: average value, FLIPR TETRA, read-out: Human UII Ca^+ Mobilization Average IC50
T2 construct: 6D9: isolated by dilution subcloning of RMS13 cells, ATCC® Number: CRL-2061; host or cells: 6D9 human rhabdomyosarcoma cells (subclone of RMS13)
T2 sequence (Q9UKP6 1-389): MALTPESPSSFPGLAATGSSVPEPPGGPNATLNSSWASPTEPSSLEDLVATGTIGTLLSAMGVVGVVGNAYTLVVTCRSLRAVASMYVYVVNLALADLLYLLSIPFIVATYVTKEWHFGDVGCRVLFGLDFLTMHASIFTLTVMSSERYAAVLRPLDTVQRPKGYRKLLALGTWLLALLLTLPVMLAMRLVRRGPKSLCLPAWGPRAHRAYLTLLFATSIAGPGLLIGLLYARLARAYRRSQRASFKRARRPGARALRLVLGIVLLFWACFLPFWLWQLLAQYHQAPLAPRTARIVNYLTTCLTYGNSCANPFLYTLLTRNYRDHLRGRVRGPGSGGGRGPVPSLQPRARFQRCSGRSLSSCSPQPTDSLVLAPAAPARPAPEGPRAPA
Summary of the method: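 6D9 rhabdomyosarcoma cells loaded 45 min at 37° C with calcium dye (1.25 mM probenecid, 0.01% FBS, HBSS/20 mM HEPES). Antagonist and U-II agonist added at room temperature; FLIPR fluorescence read over 4 min; EC50/IC50 fitted. DMSO ≤0.1% final.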

[3] = molecular target: T3, endogenous human UII receptor (Homo sapiens, UniProt Q9UKP6); test: Human Radioligand Binding Assay ((^125I)-U-II binding to human skeletal muscle myoblasts)
T3 sequence (Q9UKP6 1-389): T2 sequence (Q9UKP6 1-389)

[4] = read-out: Human UII Average Binding Ki, average value, (^125I)-U-II binding to human skeletal muscle myoblasts (HSMM), 25° C., 3 h

Row | SMILES | IC50 [1] [nM] | IC50 [2] [nM] | Ki [3, 4] [nM] | Ki [3] [nM]
1 | COc1ccc([C@@H](CCCNS(=O)(=O)c2cccs2)N2C(=O)c3cccc(N4CCNCC4)c3C2=O)cc1OC [Cpd 167, (R)-thiophene-2-sulfonic acid [4-(3,4-dimethoxy-phenyl)-4-(1,3-dioxo-4-piperazin-1-yl-1,3-dihydro-isoindol-2-yl)-butyl]-amide] | 40 | 500 | 150 | 
2 | CCN1CCN(c2cccc3c2C(=O)N([C@H](CCCOCC(C)C)c2ccc(OC)c(OC)c2)C3=O)CC1 [Cpd 210, (R)-2-[1-(3,4-dimethoxy-phenyl)-4-isobutoxy-butyl]-4-(4-ethyl-piperazin-1-yl)-isoindole-1,3-dione] | 6200 | > 10000 |  | > 300
3 | COc1ccc(C(CCCNS(=O)(=O)c2c(Cl)nc3sccn23)N2C(=O)c3cccc(N4CCN([C@H](C)c5ccccc5)CC4)c3C2=O)cc1OC (stereo partly drawn) [Cpd 93, 6-chloro-imidazo[2,1-b]thiazole-5-sulfonic acid (4-(3,4-dimethoxy-phenyl)-4-{1,3-dioxo-4-[4-(1R)-(1-phenyl-ethyl)-piperazin-1-yl]-1,3-dihydro-isoindol-2-yl}-butyl)-amide] | 180 | > 3000 |  | 460
4 | CCN1CCN(c2cccc3c2C(=O)N(C(c2cccc(NCc4ccccc4)c2)c2ccc(OC)c(OC)c2)C3=O)CC1 (stereo not drawn) [Cpd 230, 2-[(3-benzylamino-phenyl)-(3,4-dimethoxy-phenyl)-methyl]-4-(4-ethyl-piperazin-1-yl)-isoindole-1,3-dione] | 290 | 1900 |  | > 300
5 | COc1ccc([C@@H](CCCNC(=N)N)N2C(=O)c3cccc(N4CCN([C@H](C)c5ccccc5)CC4)c3C2=O)cc1OC [Cpd 146, (R)-N-(4-(3,4-dimethoxy-phenyl)-4-{1,3-dioxo-4-[4-(1R)-(1-phenyl-ethyl)-piperazin-1-yl]-1,3-dihydro-isoindol-2-yl}-butyl)-guanidine] | 29 | 2700 |  | 640
6 | COc1ccc(C(CCCNS(N)(=O)=O)N2C(=O)c3cccc(N4CCN([C@H](C)c5ccccc5)CC4)c3C2=O)cc1OC (stereo partly drawn) [Cpd 122, N′-[(4-(3,4-dimethoxy-phenyl)-4-{1,3-dioxo-4-[4-(1R)-(1-phenyl-ethyl)-piperazin-1-yl]-1,3-dihydro-isoindol-2-yl}-butyl)]-sulfamide] | 12 | 500 |  | 120
7 | COc1ccc([C@H](CCCNS(=O)(=O)c2cccs2)N2C(=O)c3cccc(N4CCN([C@H](C)c5ccccc5)CC4)c3C2=O)cc1OC [Cpd 119] | 69 | 260 | 120 | 
8 | COc1ccc([C@@H](CCCNS(=O)(=O)c2cccs2)N2C(=O)c3cccc(N4CCN(C5CCCC5)CC4)c3C2=O)cc1OC [Cpd 193, (R)-thiophene-2-sulfonic acid [4-[4-(4-cyclopentyl-piperazin-1-yl)-1,3-dioxo-1,3-dihydro-isoindol-2-yl]-4-(3,4-dimethoxy-phenyl)-butyl]-amide] | 7.9 | 520 |  | 86
9 | COc1cc(Br)c(CN2C(=O)c3cccc(N4CCN([C@H](C)c5ccccc5)CC4)c3C2=O)cc1OC [Cpd 225, 2-(2-bromo-4,5-dimethoxy-benzyl)-4-[4-(1R)-(1-phenyl-ethyl)-piperazin-1-yl]-isoindole-1,3-dione] | 1500 | > 10000 |  | > 300
10 | COc1ccc([C@@H](CCCNC(=O)c2ccoc2)N2C(=O)c3cccc(N4CCN([C@H](C)c5ccccc5)CC4)c3C2=O)cc1OC [Cpd 186, (R)-furan-3-carboxylic acid (4-(3,4-dimethoxy-phenyl)-4-{1,3-dioxo-4-[4-(1R)-(1-phenyl-ethyl)-piperazin-1-yl]-1,3-dihydro-isoindol-2-yl}-butyl)-amide] | 13 | 820 |  | 37
11 | COc1ccc([C@@H](CCNS(=O)(=O)c2cn(C)c(C)n2)N2C(=O)c3cccc(N4CCN([C@H](C)c5ccccc5)CC4)c3C2=O)cc1OC [Cpd 219, (R)-1,2-dimethyl-1H-imidazole-4-sulfonic acid (3-(3,4-dimethoxy-phenyl)-3-{1,3-dioxo-4-[4-(1R)-(1-phenyl-ethyl)-piperazin-1-yl]-1,3-dihydro-isoindol-2-yl}-propyl)-amide] | 22 | 1000 |  | 44
12 | COc1ccc([C@@H](CCCNS(=O)(=O)c2cccs2)N2C(=O)c3cccc(N4CCN(C(C)C)CC4)c3C2=O)cc1OC [Cpd 198, (R)-thiophene-2-sulfonic acid {4-(3,4-dimethoxy-phenyl)-4-[4-(4-isopropyl-piperazin-1-yl)-1,3-dioxo-1,3-dihydro-isoindol-2-yl]-butyl}-amide] | 3.5 | 150 | 45 | 
13 | COc1ccc([C@@H](CCCNS(=O)(=O)c2cccs2)N2C(=O)c3cccc(N4CCN(Cc5ccsc5)CC4)c3C2=O)cc1OC [Cpd 172, (R)-thiophene-2-sulfonic acid {4-(3,4-dimethoxy-phenyl)-4-[1,3-dioxo-4-(4-thiophen-3-ylmethyl-piperazin-1-yl)-1,3-dihydro-isoindol-2-yl]-butyl}-amide] | 11 | 220 |  | 26
14 | COc1ccc([C@@H](CCCNC(=O)c2ccc(S(C)(=O)=O)s2)N2C(=O)c3cccc(N4CCN([C@H](C)c5ccccc5)CC4)c3C2=O)cc1OC [Cpd 157, (R)-5-methanesulfonyl-thiophene-2-carboxylic acid (4-(3,4-dimethoxy-phenyl)-4-{1,3-dioxo-4-[4-(1R)-(1-phenyl-ethyl)-piperazin-1-yl]-1,3-dihydro-isoindol-2-yl}-butyl)-amide] | 32 | 680 |  | 260
15 | CCCC(=O)NCCC[C@H](c1ccc(OC)c(OC)c1)N1C(=O)c2cccc(N3CCN([C@H](C)c4ccccc4)CC3)c2C1=O [Cpd 176, (R)-N-(4-(3,4-dimethoxy-phenyl)-4-{1,3-dioxo-4-[4-(1R)-(1-phenyl-ethyl)-piperazin-1-yl]-1,3-dihydro-isoindol-2-yl}-butyl)-butyramide] | 13 | 850 |  | 24
16 | COc1ccc(C(CCCNS(=O)(=O)c2cn(C)cn2)N2C(=O)c3cccc(N4CCN([C@H](C)c5ccccc5)CC4)c3C2=O)cc1OC (stereo partly drawn) [Cpd 98, 1-methyl-1H-imidazole-4-sulfonic acid (4-(3,4-dimethoxy-phenyl)-4-{1,3-dioxo-4-[4-(1R)-(1-phenyl-ethyl)-piperazin-1-yl]-1,3-dihydro-isoindol-2-yl}-butyl)-amide] | 18 | 350 |  | 42
17 | COc1ccc(C(CCCNS(=O)(=O)Cc2ccccc2)N2C(=O)c3cccc(N4CCN([C@H](C)c5ccccc5)CC4)c3C2=O)cc1OC (stereo partly drawn) [Cpd 117, N-(4-(3,4-dimethoxy-phenyl)-4-{1,3-dioxo-4-[4-(1R)-(1-phenyl-ethyl)-piperazin-1-yl]-1,3-dihydro-isoindol-2-yl}-butyl)-C-phenyl-methanesulfonamide] | 58 | 700 |  | 32
18 | COc1ccc([C@@H](CCCNC(=O)C2CCCC2)N2C(=O)c3cccc(N4CCN([C@H](C)c5ccccc5)CC4)c3C2=O)cc1OC [Cpd 179, (R)-cyclopentanecarboxylic acid (4-(3,4-dimethoxy-phenyl)-4-{1,3-dioxo-4-[4-(1R)-(1-phenyl-ethyl)-piperazin-1-yl]-1,3-dihydro-isoindol-2-yl}-butyl)-amide] | 24 | 1100 |  | 43
19 | COc1ccc(C(CCCNS(=O)(=O)c2cccc3cccnc23)N2C(=O)c3cccc(N4CCN([C@H](C)c5ccccc5)CC4)c3C2=O)cc1OC (stereo partly drawn) [Cpd 109, quinoline-8-sulfonic acid (4-(3,4-dimethoxy-phenyl)-4-{1,3-dioxo-4-[4-(1R)-(1-phenyl-ethyl)-piperazin-1-yl]-1,3-dihydro-isoindol-2-yl}-butyl)-amide] | 27 | 300 |  | 19
